PMC3280264 (PLoS ONE, 2012)
Marks after values point to notes of the source that are not given here.

Columns and labels:
Mouse SGLT2 = Mouse SGLT2 (Mus musculus, UniProt Q923I7); assay: cell-based
Description: (§1) Sodium-dependent Glucose Uptake in Chinese Hamster Ovary (CHO) Cells Expressing SGLT1 and SGLT2 Co-transporters Parental CHO-K (CHOK) cells (commonly used mammalian cells for gene overexpression studies) expressing human or mouse SGLT1 and SGLT2 were utilized in this study. Cells were seeded into 96-well plates. Cells were then washed one time with 0.15 ml assay buffer (137 mM NaCl, 5 mM KCl, 1 mM CaCl2, 1 mM MgCl2, 50 mM HEPES, pH 7.4) at 37°C. […] Then, 5 µl of 6 mM alpha-methyl-D-glucopyranoside (AMG, a selective SGLT1/2 substrate)/^14C-AMG (0.07 µCi) was added to the cells and incubated at 37°C for 2 hours. Next, the cells were washed 3 times with 0.15 ml ice-cold phosphate-buffered saline (PBS). After the final wash was aspirated, 50 µl of microscint 20 (Packard, Meriden, Connecticut, USA) was added. The plate was counted by TopCount (Packard, Meriden, Connecticut, USA).
(§2) Statistical analysis was performed using the program Prism (Graphpad, Monrovia, California, USA). Differences between groups were evaluated using 1-way […] with Dunnett's multiple comparison test or student's t-test (unpaired), as appropriate. Probabilities less than 5% (P<0.05) were considered to be statistically significant. […] All data are presented as mean ± standard error.

Human SGLT2 = Human SGLT2 (Homo sapiens, UniProt P31639); assay: cell-based
Description: as §1, §2

ZDF rats = assay: 4-week treatment of ZDF rats (glycemic control, OGTT); type: in vivo, rat; conditions: 4 weeks; for OGTT Ratio of insulin AUC/glucose AUC / Insulin / HbA1c / OGTT Plasma insulin (AUC0–120 min) / Fed plasma glucose / OGTT Blood glucose (AUC0–120 min): ZDF rats; for OGTT Ratio of insulin AUC/glucose AUC: vehicle 0.003±0.000; for Insulin: vehicle 5.2±0.4; for HbA1c: vehicle 11.5±0.3; for OGTT Plasma insulin (AUC0–120 min): vehicle 221±13; for Fed plasma glucose: vehicle 598.2±18.0; for OGTT Blood glucose (AUC0–120 min): vehicle 70,704±1289
Description: (§3) Four rodent models were used in these experiments: (1) male C57BL/6J mice fed with a high-fat diet (D-12492 with 60 kcal% fat, Research Diets, Inc, New Jersey, USA) (diet-induced obese, insulin resistantmice [DIO]); (2) male C57BL/ksj-db/db hyperglycemic mice; (3) male Zucker fatty (ZF) obese, insulin resistant rats; and (4) male ZDF obese, hyperglycemic rats. All animals were housed according to standard procedures following a protocol approved by the IACUC in Drug Discovery at Johnson & Johnson Pharmaceutical Research & Development, LLC.
BG levels were monitored at 0, 0.5, 1, 3, 6, and 24 hours after dosing. […] BG levels were monitored weekly, and HbA1c, plasma glucose, and insulin levels were determined at the end of the 4-week treatment. An oral glucose tolerance test (OGTT) ([…] of body weight, given by gavage) was conducted in ZDF rats after 4 weeks of treatment. Blood was sampled at 0, 30, 60, and 120 minutes after glucose challenge from the tail vein for measurement of BG levels using a glucometer (One Touch Ultra, LifeScan, Milpitas, California, USA) and plasma insulin using ELISA method (ALPCO, Salem, New Hampshire, USA).

Rat SGLT2 = Rat SGLT2 (Rattus norvegicus, UniProt P53792); assay: cell-based
ZF rats = assay: 3-week treatment of ZF rats (body weight, UGE, calorimetry); type: in vivo; conditions: ZF rat, 3 mg/kg, 3 weeks
Description: as §3
Body weight, food intake, and BG levels were monitored weekly. UGE and indirect calorimetry were conducted in the fourth week of treatment during the compound treatment. […] Body weight, food intake, and BG were measured weekly during the 19-day treatment period. UGE, body fat, and indirect calorimetric studies were conducted at the end of this study.

Mouse SGLT1 = target: T1, Mouse SGLT1 (Mus musculus, UniProt Q8C3K6); assay: 14C-AMG uptake in CHOK cells expressing mouse SGLT1; type: cell-based; conditions: CHO-mSGLT1 cells, mean of 2 experiments
T1 construct: expressed in transfected cells; host or cells: CHO-K (CHOK) cells
T1 sequence (Q8C3K6 1-665): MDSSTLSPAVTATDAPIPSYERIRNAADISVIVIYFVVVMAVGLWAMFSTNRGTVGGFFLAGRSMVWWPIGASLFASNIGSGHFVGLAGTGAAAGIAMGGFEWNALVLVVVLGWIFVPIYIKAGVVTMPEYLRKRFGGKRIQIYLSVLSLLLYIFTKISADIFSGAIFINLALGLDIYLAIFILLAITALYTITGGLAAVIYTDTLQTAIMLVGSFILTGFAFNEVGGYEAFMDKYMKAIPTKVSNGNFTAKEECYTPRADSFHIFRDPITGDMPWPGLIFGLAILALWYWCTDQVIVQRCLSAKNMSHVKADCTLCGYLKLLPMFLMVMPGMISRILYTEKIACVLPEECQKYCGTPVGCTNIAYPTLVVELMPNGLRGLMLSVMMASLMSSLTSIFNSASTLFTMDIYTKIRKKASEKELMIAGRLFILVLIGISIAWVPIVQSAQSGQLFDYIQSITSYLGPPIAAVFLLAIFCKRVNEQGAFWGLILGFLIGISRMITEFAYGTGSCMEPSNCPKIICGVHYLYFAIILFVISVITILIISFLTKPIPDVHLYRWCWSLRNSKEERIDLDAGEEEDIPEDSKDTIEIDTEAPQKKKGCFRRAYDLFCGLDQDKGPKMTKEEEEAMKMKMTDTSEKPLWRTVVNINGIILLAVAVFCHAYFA
Description: Cells were seeded into 96-well plates.
All data are presented as mean ± standard error.

Human SGLT2, sequence (P31639 whole entry): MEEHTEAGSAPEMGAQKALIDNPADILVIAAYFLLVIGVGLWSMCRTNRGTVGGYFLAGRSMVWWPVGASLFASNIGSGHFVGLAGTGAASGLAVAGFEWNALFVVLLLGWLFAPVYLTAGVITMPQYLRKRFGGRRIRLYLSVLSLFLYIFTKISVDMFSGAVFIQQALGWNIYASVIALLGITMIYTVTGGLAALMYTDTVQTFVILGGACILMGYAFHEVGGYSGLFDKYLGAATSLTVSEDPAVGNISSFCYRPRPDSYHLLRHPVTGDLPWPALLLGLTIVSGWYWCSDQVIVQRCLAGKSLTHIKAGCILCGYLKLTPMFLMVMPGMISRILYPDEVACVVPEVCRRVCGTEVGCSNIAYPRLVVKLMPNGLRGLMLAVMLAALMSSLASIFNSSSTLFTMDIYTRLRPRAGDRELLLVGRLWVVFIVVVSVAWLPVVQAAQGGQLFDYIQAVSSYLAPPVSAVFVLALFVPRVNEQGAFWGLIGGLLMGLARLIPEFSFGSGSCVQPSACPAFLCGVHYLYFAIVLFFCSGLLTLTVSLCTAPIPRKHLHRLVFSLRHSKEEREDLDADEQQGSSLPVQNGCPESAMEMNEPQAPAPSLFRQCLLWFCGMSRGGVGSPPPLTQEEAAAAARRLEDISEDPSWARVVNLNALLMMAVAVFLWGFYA
Mouse SGLT2, sequence (Q923I7 whole entry): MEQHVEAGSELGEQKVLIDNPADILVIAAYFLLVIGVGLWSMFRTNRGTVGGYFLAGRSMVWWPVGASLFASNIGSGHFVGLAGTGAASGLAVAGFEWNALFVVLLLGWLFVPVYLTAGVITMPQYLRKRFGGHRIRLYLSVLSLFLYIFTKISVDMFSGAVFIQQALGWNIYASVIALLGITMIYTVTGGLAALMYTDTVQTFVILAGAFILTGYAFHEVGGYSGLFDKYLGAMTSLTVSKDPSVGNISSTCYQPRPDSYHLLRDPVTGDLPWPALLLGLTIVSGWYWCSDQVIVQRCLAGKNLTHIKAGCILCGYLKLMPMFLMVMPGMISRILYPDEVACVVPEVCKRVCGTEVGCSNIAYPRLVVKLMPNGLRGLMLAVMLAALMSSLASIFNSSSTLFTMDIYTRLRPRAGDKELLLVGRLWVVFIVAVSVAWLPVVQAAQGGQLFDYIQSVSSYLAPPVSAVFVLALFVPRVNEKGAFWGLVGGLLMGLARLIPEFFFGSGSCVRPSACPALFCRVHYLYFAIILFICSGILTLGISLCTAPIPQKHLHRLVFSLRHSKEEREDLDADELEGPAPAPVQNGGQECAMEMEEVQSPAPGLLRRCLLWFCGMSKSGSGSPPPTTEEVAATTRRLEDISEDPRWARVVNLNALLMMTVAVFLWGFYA
Rat SGLT2, sequence (P53792 whole entry): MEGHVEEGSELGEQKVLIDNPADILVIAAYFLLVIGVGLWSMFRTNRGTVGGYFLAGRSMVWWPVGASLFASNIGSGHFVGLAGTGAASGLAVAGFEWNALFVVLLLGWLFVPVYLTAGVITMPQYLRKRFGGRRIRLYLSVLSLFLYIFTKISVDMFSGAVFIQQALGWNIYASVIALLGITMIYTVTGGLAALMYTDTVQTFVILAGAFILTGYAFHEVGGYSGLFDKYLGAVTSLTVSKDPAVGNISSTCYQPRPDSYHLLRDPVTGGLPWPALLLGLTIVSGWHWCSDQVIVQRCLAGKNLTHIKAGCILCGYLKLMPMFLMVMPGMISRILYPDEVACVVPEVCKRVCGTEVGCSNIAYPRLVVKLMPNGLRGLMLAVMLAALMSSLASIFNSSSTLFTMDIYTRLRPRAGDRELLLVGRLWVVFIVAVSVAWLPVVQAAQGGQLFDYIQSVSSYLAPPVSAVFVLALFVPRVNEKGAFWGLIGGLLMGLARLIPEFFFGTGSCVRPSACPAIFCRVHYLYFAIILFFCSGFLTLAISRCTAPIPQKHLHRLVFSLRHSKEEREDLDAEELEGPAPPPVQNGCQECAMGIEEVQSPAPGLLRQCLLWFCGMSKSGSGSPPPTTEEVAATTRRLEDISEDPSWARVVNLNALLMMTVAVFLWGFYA

In the case of `Cc1ccc([C@@H]2O[C@H](CO)[C@@H](O)[C@H](O)[C@H]2O)cc1Cc1ccc(-c2ccc(F)cc2)s1` [canagliflozin, Canagliflozin], the IC50 (Mouse SGLT2) is reported as 2 nM, the IC50 (Human SGLT2) is reported as 4.4 ± 1.2 nM and the “OGTT Ratio of insulin AUC/glucose AUC” value (ZDF rats; 3 mg/kg) is reported as 0.013±0.002 ^a (ng/ml•min)/mg/dl•min). The Insulin (ZDF rats; 3 mg/kg) was 7.9±0.1 ^a ng/ml, the HbA1c (ZDF rats; 3 mg/kg) was 7.1±0.3 ^a % and the “OGTT Plasma insulin (AUC0–120 min)” value (ZDF rats; 3 mg/kg) was 342±27 ^a ng/ml•min. For the same compound, the Fed plasma glucose (ZDF rats; 3 mg/kg) was 248.0±13.5 ^a mg/dl, the “OGTT Blood glucose (AUC0–120 min)” value (ZDF rats; 3 mg/kg) was 27,883±1806 ^a mg/dl•min and the “OGTT Ratio of insulin AUC/glucose AUC” value (ZDF rats; 10 mg/kg) was 0.017±0.002 ^a (ng/ml•min)/mg/dl•min). The Insulin (ZDF rats; 10 mg/kg) was 7.9±0.1 ^a ng/ml, the HbA1c (ZDF rats; 10 mg/kg) was 5.6±0.3 ^a % and the “OGTT Plasma insulin (AUC0–120 min)” value (ZDF rats; 10 mg/kg) was 403±33 ^a ng/ml•min. The Fed plasma glucose (ZDF rats; 10 mg/kg) was 182.0±7.1 ^a mg/dl, the “OGTT Blood glucose (AUC0–120 min)” value (ZDF rats; 10 mg/kg) was 23,989±1881 ^a mg/dl•min and the “OGTT Ratio of insulin AUC/glucose AUC” value (ZDF rats; 30 mg/kg) was 0.018±0.002 ^a (ng/ml•min)/mg/dl•min). For the same compound, the Insulin (ZDF rats; 30 mg/kg) was 7.8±0.1 ^a ng/ml, the HbA1c (ZDF rats; 30 mg/kg) was 5.5±0.3 ^a % and the “OGTT Plasma insulin (AUC0–120 min)” value (ZDF rats; 30 mg/kg) was 288 ± 34 ng·min/mL. For the same compound, the Fed plasma glucose (ZDF rats; 30 mg/kg) was 199.9±14.7 ^a mg/dl, the “OGTT Blood glucose (AUC0–120 min)” value (ZDF rats; 30 mg/kg) was 16,549±822 ^a mg/dl•min and the “increase in the insulin/glucose ratio following an OGTT, relative to vehicle-treated animals” value (ZDF rats; ZDF rats, 3, 10 or 30 mg/kg) was 4-to-6 fold. For the same compound, the IC50 (Rat SGLT2) was 3.7 nM, the “Feeding efficiency index (body weight gain/food intake)” value (ZF rats; vehicle 0.30±0.01) was 0.25±0.01 and the RER (ZF rats; vehicle 1.10±0.01) was 1.06±0.01 ^b. The UGE (ZF rats; vehicle 1.8±1.1) was 29.10±3.5 ^b mg/4 h, the Epididymal fat weight (ZF rats; vehicle 10.8±0.3) was 9.5±0.3 ^b g and the Liver weight (ZF rats; vehicle 28.5±0.8) was 25.0±1.4 ^b g. The “Fed BG” value (ZF rats; vehicle 149.6±22.9) was 118.9±4.3 ^b mg/dl, the Body weight (ZF rats; vehicle 437.9±11.5) was 408.1±7.7 ^b g and the Total food intake (ZF rats; vehicle 645.3±21.2) was 647.9 ± 18.9 g. The “Oxygen consumption (VO2)” value (ZF rats; vehicle 1560±28) was 26.37 ± 0.55 mL/min/kg and the IC50 (Mouse SGLT1) was over 1000 nM.
